This passage reports Papp and microsomal CLint results from patent US9409952B2, “Peptide-compound cyclization method” (Chugai Seiyaku Kabushiki Kaisha, priority 2011, dated 2016).

Starred links: 1 amine or outer side, 2 acyl side, 3 side chain; linkers in the order of their positions; H or OH if unused. Positions of bridges follow the written chain, without caps; N, C: chain ends. Non-standard residues stand in square brackets, D forms with d. Residues, ends and D or L forms follow the SMILES beside them. *: point of attachment. Phe(4-(CH2)5CO) = O=C([C@H](Cc1ccc(CCCCCC(=O)[*:3])cc1)N[*:1])[*:2]; Phe(3-(CH2)4CO) = O=C([C@H](Cc1cccc(CCCCC(=O)[*:3])c1)N[*:1])[*:2]; NMeF = CN[C@@H](Cc1ccccc1)C(=O)O; NMeI = CC[C@H](C)[C@H](NC)C(=O)O; NMeL = CN[C@@H](CC(C)C)C(=O)O; NMeV = CN[C@H](C(=O)O)C(C)C; NMeA = CN[C@@H](C)C(=O)O; Piperidide = C1CCN(*)CC1; Sar = CNCC(=O)O; tBu = CC(C)(C)*

Series [1] in a line: PAMPA (parallel artificial membrane permeability assay). Type of series: in vitro ADME. Conditions: PAMPA; membrane permeation rate (Pe); 50 mM MOPSO buffer pH 6.5 with 5.0% glycocholic acid, 37° C., 18 hours; read-out: iPAMPA Pe. A digest of the protocol: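 Artificial membrane was 10% (w/v) egg lecithin plus 0.5% (w/v) cholesterol in dodecane on a PVDF filter. A 10 mM DMSO stock was added at 0.5% (v/v) to donor buffer (50 mM MOPSO, pH 6.5, 5.0% glycocholic acid). After 18 h at 37 °C, LC/MS or LC/UV gave donor and acceptor levels for Pe.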

The nature of series [2]: Metabolic stability in human hepatic microsome. It counts as in vitro ADME. To be noted: microsomes, pH 7.4; human hepatic microsome, NADPH(+); read-out: CL NADPH(+).

For `CC[C@H](C)[C@H]1C(=O)N[C@@H](C)C(=O)N(C)[C@@H](CC(C)C)C(=O)N[C@@H](COC(C)(C)C)C(=O)N(C)[C@@H](CC(C)C)C(=O)N[C@H](C(=O)N2CCCCC2)Cc2cccc(c2)CCCCC(=O)N[C@@H](Cc2ccccc2)C(=O)N(C)[C@@H](Cc2ccccc2)C(=O)N(C)[C@@H](CC(C)C)C(=O)N[C@@H]([C@@H](C)O)C(=O)N(C)[C@@H](C)C(=O)N1C` [DP-874] (F[NMeF][NMeL]T[NMeA][NMeI]A[NMeL]S(tBu)[NMeL][Phe(3-(CH2)4CO)]-Piperidide; lactam N-11), in series [1], the Papp at 18 hours, 50 µM was 0.15 ×10⁻⁶ cm/s. In series [2], the microsomal CLint at 1 uM worked out at 48 µL/min/mg.
`CC[C@H](C)[C@@H]1NC(=O)[C@H](CC(C)C)N(C)C(=O)[C@H](Cc2ccccc2)N(C)C(=O)[C@H](CC(C)C)NC(=O)CCCCCc2ccc(cc2)C[C@@H](C(=O)N2CCCCC2)NC(=O)[C@H](C)N(C)C(=O)[C@H](C)N(C)C(=O)CN(C)C(=O)[C@H]([C@@H](C)O)NC(=O)[C@H](Cc2ccccc2)N(C)C(=O)[C@H](C(C)C)N(C)C1=O` [DP-875] (L[NMeF][NMeL]I[NMeV][NMeF]T[Sar][NMeA][NMeA][Phe(4-(CH2)5CO)]-Piperidide; lactam N-11): the Papp at 18 hours, 50 µM in series [1] is 19 ×10⁻⁶ cm/s. The microsomal CLint at 1 uM in series [2] was determined as 34 µL/min/mg.
Take `CC[C@H](C)[C@@H]1NC(=O)CCCCc2cccc(c2)C[C@@H](C(=O)N2CCCCC2)NC(=O)[C@H](C)N(C)C(=O)[C@H](CC(C)C)N(C)C(=O)CN(C)C(=O)[C@H]([C@@H](C)O)NC(=O)[C@H](Cc2ccccc2)N(C)C(=O)[C@H](CC(C)C)N(C)C(=O)[C@H](C)NC(=O)[C@H](C(C)C)N(C)C(=O)[C@H](Cc2ccccc2)N(C)C1=O` [DP-876] (I[NMeF][NMeV]A[NMeL][NMeF]T[Sar][NMeL][NMeA][Phe(3-(CH2)4CO)]-Piperidide; lactam N-11): the Papp at 18 hours, 50 µM in series [1] came to 55 ×10⁻⁶ cm/s. In series [2], the microsomal CLint at 1 uM was 103 µL/min/mg.
For `CC[C@H](C)[C@H]1C(=O)N[C@@H](CC(C)C)C(=O)N(C)[C@@H](C)C(=O)N(C)[C@@H](Cc2ccccc2)C(=O)NCC(=O)N[C@@H]([C@@H](C)O)C(=O)N[C@@H](Cc2ccccc2)C(=O)N(C)[C@@H](CC(C)C)C(=O)N2CCC[C@H]2C(=O)N[C@H](C(=O)N2CCCCC2)Cc2cccc(c2)CCCCC(=O)N[C@@H](CC(C)C)C(=O)N1C` [DP-877] (L[NMeI]L[NMeA][NMeF]GTF[NMeL]P[Phe(3-(CH2)4CO)]-Piperidide; lactam N-11) the same measures were 4.6 ×10⁻⁶ cm/s and 43 µL/min/mg.
On to `CC[C@H](C)[C@H]1C(=O)N[C@H](C(=O)N2CCCCC2)Cc2ccc(cc2)CCCCCC(=O)N[C@@H]([C@@H](C)O)C(=O)N(C)[C@@H](Cc2ccccc2)C(=O)N[C@@H](CC(C)C)C(=O)N2CCC[C@H]2C(=O)N[C@@H](C(C)C)C(=O)N[C@@H](Cc2ccccc2)C(=O)N(C)CC(=O)N[C@@H](CC(C)C)C(=O)N[C@@H](C)C(=O)N1C` [DP-878] (T[NMeF]LPVF[Sar]LA[NMeI][Phe(4-(CH2)5CO)]-Piperidide; lactam N-11), for which the Papp at 18 hours, 50 µM in series [1] was 23 ×10⁻⁶ cm/s. Besides, the microsomal CLint at 1 uM in series [2] stood at 152 µL/min/mg.
On to `CC[C@H](C)[C@H]1C(=O)N[C@H](C(=O)N2CCCCC2)Cc2ccc(cc2)CCCCCC(=O)N[C@@H](CC(C)C)C(=O)N2CCC[C@H]2C(=O)N[C@@H](C(C)C)C(=O)N[C@@H](Cc2ccccc2)C(=O)N(C)CC(=O)N[C@@H](CC(C)C)C(=O)N[C@@H](C)C(=O)N1C` [DP-879] (LPVF[Sar]LA[NMeI][Phe(4-(CH2)5CO)]-Piperidide; lactam N-9), for which the Papp at 18 hours, 50 µM in series [1] is 35 ×10⁻⁶ cm/s. Also, the microsomal CLint at 1 uM in series [2] was 239 µL/min/mg.
With `C=C1CCC(=O)N[C@@H](CC(C)C)C(=O)N2CCC[C@H]2C(=O)N(C)[C@@H](C(C)C)C(=O)N[C@@H](Cc2ccccc2)C(=O)N(C)CC(=O)N(C)[C@@H](CC(C)C)C(=O)N[C@@H](C)C(=O)N(C)[C@@H]([C@@H](C)CC)C(=O)N[C@H](C(=O)N2CCCCC2)Cc2ccc1cc2` [DP-880], the Papp at 18 hours, 50 µM in series [1] was found to be 34 ×10⁻⁶ cm/s. Also, the microsomal CLint at 1 uM in series [2] was 490 µL/min/mg.
For `CC(C)C[C@@H]1NC(=O)CCCCCc2ccc(cc2)C[C@@H](C(=O)N2CCCCC2)NC(=O)[C@H](Cc2ccccc2)N(C)C(=O)[C@H](CC(C)C)N(C)C(=O)CN(C)C(=O)[C@H]([C@@H](C)O)NC(=O)[C@H](C)N(C)C(=O)[C@H](C(C)C)N(C)C(=O)[C@H](C)NC(=O)[C@H](CC(C)C)N(C)C(=O)[C@H](Cc2ccccc2)N(C)C1=O` [DP-881] (L[NMeF][NMeL]A[NMeV][NMeA]T[Sar][NMeL][NMeF][Phe(4-(CH2)5CO)]-Piperidide; lactam N-11) the same measures were 6.8 ×10⁻⁶ cm/s and 83 µL/min/mg.
Turning to `C=C1CCC(=O)N[C@@H](CC(C)C)C(=O)N(C)[C@@H]([C@@H](C)CC)C(=O)N(C)[C@@H](CC(C)C)C(=O)NCC(=O)N(C)[C@@H](C)C(=O)N[C@@H](Cc2ccccc2)C(=O)N[C@@H]([C@@H](C)O)C(=O)N(C)[C@@H](CC(C)C)C(=O)N[C@@H](Cc2ccccc2)C(=O)N(C)[C@@H](C(C)C)C(=O)N[C@H](C(=O)N2CCCCC2)Cc2cccc1c2` [DP-882], the Papp at 18 hours, 50 µM in series [1] turned out to be 1.8 ×10⁻⁶ cm/s. Moreover, in series [2], the microsomal CLint at 1 uM amounted to 32 µL/min/mg.
Take `CC[C@H](C)[C@H]1C(=O)N(C)[C@@H](C)C(=O)N[C@H](C(=O)N2CCCCC2)Cc2ccc(cc2)CCCCCC(=O)N[C@@H]([C@@H](C)O)C(=O)N(C)[C@@H](Cc2ccccc2)C(=O)N(C)[C@@H](CC(C)C)C(=O)N[C@@H](C(C)C)C(=O)N2CCC[C@H]2C(=O)N(C)[C@@H](Cc2ccccc2)C(=O)N[C@@H](CC(C)C)C(=O)N(C)CC(=O)N1C` [DP-883] (T[NMeF][NMeL]VP[NMeF]L[Sar][NMeI][NMeA][Phe(4-(CH2)5CO)]-Piperidide; lactam N-11): the Papp at 18 hours, 50 µM in series [1] worked out at 14 ×10⁻⁶ cm/s. Also, in series [2], the microsomal CLint at 1 uM worked out at 294 µL/min/mg.
Turning to `CC[C@H](C)[C@H]1C(=O)N[C@@H](Cc2ccccc2)C(=O)N(C)[C@@H](Cc2ccccc2)C(=O)N[C@@H]([C@@H](C)O)C(=O)N2CCC[C@H]2C(=O)N[C@@H](CC(C)C)C(=O)N[C@H](C(=O)N2CCCCC2)Cc2cccc(c2)CCCCC(=O)NCC(=O)N(C)[C@@H](C(C)C)C(=O)N(C)[C@@H](CC(C)C)C(=O)N[C@@H](C)C(=O)N1C` [DP-885] (G[NMeV][NMeL]A[NMeI]F[NMeF]TPL[Phe(3-(CH2)4CO)]-Piperidide; lactam N-11), in series [1], the Papp at 18 hours, 50 µM stood at 30 ×10⁻⁶ cm/s. Further, the microsomal CLint at 1 uM in series [2] was 75 µL/min/mg.
For `CC[C@H](C)[C@@H]1NC(=O)CCCCc2cccc(c2)C[C@@H](C(=O)N2CCCCC2)NC(=O)[C@H](Cc2ccccc2)N(C)C(=O)[C@H](CC(C)C)N(C)C(=O)CN(C)C(=O)[C@H]([C@@H](C)O)NC(=O)[C@H](C)N(C)C(=O)[C@H](C(C)C)N(C)C(=O)[C@H](C)NC(=O)[C@H](CC(C)C)N(C)C(=O)[C@H](Cc2ccccc2)N(C)C1=O` [DP-886] (I[NMeF][NMeL]A[NMeV][NMeA]T[Sar][NMeL][NMeF][Phe(3-(CH2)4CO)]-Piperidide; lactam N-11), in series [1], the Papp at 18 hours, 50 µM amounted to 22 ×10⁻⁶ cm/s. The microsomal CLint at 1 uM in series [2] was determined as 162 µL/min/mg.
For `C=C1CCC(=O)NCC(=O)N(C)[C@@H](C)C(=O)N[C@@H](CC(C)C)C(=O)N[C@@H](C(C)C)C(=O)N(C)[C@@H](CC(C)C)C(=O)N[C@@H](Cc2ccccc2)C(=O)N(C)[C@@H](Cc2ccccc2)C(=O)N[C@@H]([C@@H](C)CC)C(=O)N(C)[C@@H](C)C(=O)N[C@@H](CC(C)C)C(=O)N[C@@H]([C@@H](C)O)C(=O)N[C@H](C(=O)N2CCCCC2)Cc2ccc1cc2` [DP-887] the same measures were 3.9 ×10⁻⁶ cm/s and 103 µL/min/mg.
